Experimental data published in PMC11124413, “Synthesis, Antibacterial Effects, and Toxicity of Licochalcone C” (Pharmaceuticals, 2024).
In brackets after ≈: the same amount, converted by molar mass.

How the values were obtained:
[1] = test system: S. sanguinis (ATCC 10556); experiment: MIC, broth microdilution with resazurin; format: cell-based; conditions: ATCC10556; Streptococcus sanguinis; mean of triplicates
S. sobrinus (ATCC 33478) = experiment: MIC, broth microdilution with resazurin; format: cell-based; conditions: ATCC33478; Streptococcus sobrinus; mean of triplicates
S. mutans (ATCC 25175) = experiment: MIC, broth microdilution with resazurin; format: cell-based; conditions: ATCC25175; Streptococcus mutans; mean of triplicates
[2] = test system: Galleria mellonella larvae; experiment: Systemic toxicity in Galleria mellonella larvae; format: in vivo; conditions: 100% DMSO; after 40 h
Experimental: The systemic toxicity assay was performed to evaluate the acute toxic effects of LCC, following the procedures described by Megaw [63]. For the experiment, 10 healthy larvae from G. mellonella were randomly selected for each concentration test, with a weight range between 0.2 g and 0.3 g and without melanization aspects. The larvae were chilled on ice for 20 min and had their prolegs cleaned with 70% ethanol. […] Five microliters of the solution were injected into the hemocoel of each larva through the last left proleg using a 25 µL Hamilton syringe. After the administration, the larvae were incubated at 37 °C and their survival was monitored in selected intervals over 72 h. The larvae unable to move when touched and showing elevated levels of melanization were counted as dead. Experiments were performed in triplicate.

Gram-negative strains = test system: Gram-negative strains; design: method as in PMID 20160051; conditions: without efflux pump inhibitor (EPI); cited from earlier work
[3] = test system: M. tuberculosis (ATCC 27294); experiment: Antimycobacterial MIC, resazurin microtiter assay; format: cell-based; conditions: ATCC27294; Mycobacterium tuberculosis; mean of triplicates
M. avium (ATCC 25291) = experiment: Antimycobacterial MIC, resazurin microtiter assay; format: cell-based; conditions: ATCC25291; Mycobacterium avium; mean of triplicates
M. kansasii (ATCC 12478) = experiment: Antimycobacterial MIC, resazurin microtiter assay; format: cell-based; conditions: ATCC12478; Mycobacterium kansasii; mean of triplicates

[H]/N=C(\N/C(=N/[H])NCCCCCCNC(=N)NC(=N)Nc1ccc(Cl)cc1)Nc1ccc(Cl)cc1 [Chlorhexidine, chlorhexidine, reference compound]
MIC [1]: 1.8 µg/mL (≈ 3.56 µM)
MIC (S. sobrinus (ATCC 33478)): 3.6 µg/mL (≈ 7.12 µM)
MIC (S. mutans (ATCC 25175)): 0.4 µg/mL (≈ 0.791 µM)

C[S+](C)[O-] [DMSO, dimethyl sulfoxide, reference compound]
lethality to larvae [2]: total lethality

CC(C)=CCc1c(O)ccc(C(=O)/C=C/c2ccc(O)cc2)c1O [IBC, isobavachalcone]
antibacterial activity (Gram-negative strains): weakly active

NNC(=O)c1ccncc1 [Isoniazid, reference compound]
MIC [3]: 0.5 µg/mL (≈ 3.65 µM)
MIC (M. avium (ATCC 25291)): > 1 µg/mL
MIC (M. kansasii (ATCC 12478)): 1 µg/mL (≈ 7.29 µM)
